The source of these data is patent US10258617B2, “Dosing regimens for fast onset of antidepressant effect” (H. Lundbeck A/S, priority 2016, dated 2019).

Read-outs that look alike come from different tables or passages of the source.

A short description of data set [1]: Example 3 clinical trial: vortioxetine plasma levels and simulated AUC0-24. As to conditions: human; for concentration at 2 h: Day 0, 2 hours; for concentration at 8 h: Day 0, 8 hours; for concentration at 24 h: Day 0, 24 hours; for concentration at 14 day: Day 14; for AUC(0-t): popPK simulation based on observed data. It is filed as in vivo. The procedure:
(§1) Patients randomised to the vortioxetine IV dose regimen, received a single double-blind IV dose of 17 mg vortioxetine, infused over 2 hours, on Day 0 (baseline). Patients randomised to the vortioxetine oral dose regimen received a single double-blind IV dose of placebo (saline), infused over 2 hours, on Day 0. From Day 0 to Day 14, all patients in both treatment groups also received open labelled 10 mg/day vortioxetine by oral administration (tablets).
The popPK model from example 2 was used to simulate vortioxetine plasma levels based on the observed data from Table 5. […] That is, the steady-state plasma level of vortioxetine achieved from the combined IV and oral vortioxetine administration the within 24 hours from the first dosing is essentially the same as the steady-state vortioxetine plasma level achieved at day 14 following the administration of once-daily oral vortioxetine alone in that period.

For data set [2], the system named is patients with recurrent major depressive disorder. Description: Example 3 clinical trial: MADRS and CGI-I efficacy.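 On Change in 5-item MADRS score, Difference: apparent sadness Reported sadness Inner tension Pessimistic thoughts Suicidal thoughts.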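 On Change in 5-item MADRS score, Mean: apparent sadness Reported sadness Inner tension Pessimistic thoughts Suicidal thoughts.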 The data set is classed as in vivo, human. The conditions noted are these: for Change in 5-item MADRS score, Difference / Change in MADRS total score, Difference: VOR IV + VOR oral versus PBO IV + VOR oral. The procedure: In particular, a total of 55 patients (27 and 28 in each treatment group) were recruited to an interventional, prospective, multi-national, multi-site, randomised, double-blind, parallel-group, fixed-dose study.
The study consisted of a Screening Period—2 to 14-day period from screening to randomisation, a Treatment Period—15-day double-blind treatment period with one initial IV administration of 17 mg vortioxetine or saline and daily oral treatment with vortioxetine 10 mg and a Safety Follow-up Period—4-week period after end of treatment or after withdrawal from the study.
At the Baseline Visit, patients were equally randomised (1:1) to either of the following two dose regimens: vortioxetine 17 mg single dose (IV) and vortioxetine 10 mg/day (tablet) or placebo single dose (IV) and vortioxetine 10 mg/day (tablet).
as §1
Following the IV infusion, patients stayed hospitalised for approximately 24 hours for close observation. After the hospitalisation period, patients continued the study on an outpatient basis.
Efficacy and safety data were collected at Days 0, 1, 3, 7, and 14, including MADRS and clinical global impression […].
The full MADRS scale may not be a suitable tool for gauging the early onset of anti-depressant effect of a drug because some of the ten items addressed in the MADRS test may require longer assessment time to validly assess a given symptom. For example, the MADRS item “Concentration Difficulties” requires that the patient has been exposed to a situation during the treatment where a change in the ability to concentrate could be identified in order for that item to truly reflect a treatment effect.

A further data set concerns the target T1, 5-HT1B receptor (Macaca mulatta, UniProt F6SFA9).
T1 construct: assess changes in the endogenous serotonin concentration in living rhesus monkeys; from tissue; host or cells: brain of living rhesus monkeys (PET)
Nature of the data set: Example 1 PET monkey study: change in [11C]AZ10419369-5-HT1B receptor binding potential (BPND). The data set is classed as in vivo, rhesus monkeys. As to conditions: rhesus monkey, iv, Citalopram 0.3 mg/kg IV, mean±standard error, n=3, read-out: ΔBPND (% of baseline). The text has this:
Positron Emission Tomography (PET) was used to assess changes in the endogenous serotonin concentration in living rhesus monkeys. The objective of the present study was two-fold. […] The chemical name for [^11C]MADAM is [^11C] N,N-dimethyl-2-(2-amino-4-methylphenylthio)benzylamine.
FIG. 1 illustrates the study design used for assessment of serotonin releasing capacities. A similar study design was applied for assessment of SERT occupancy.

The mark [3] stands for this setting: other: intravenous infusion plus oral tablets, VOR IV + VOR oral.
Setting [4] is: VOR IV (17 mg day 0) + VOR oral (10 mg/day), Day 1, N 27.
The mark [5] stands for this setting: VOR IV (17 mg day 0) + VOR oral (10 mg/day), Day 3, N 27.
The mark [6] stands for this setting: VOR IV (17 mg day 0) + VOR oral (10 mg/day), Day 7, N 27.
The mark [7] stands for this setting: PBO IV + VOR oral (10 mg/day), Day 1, N 28.
[8] abbreviates: PBO IV + VOR oral (10 mg/day), Day 3, N 28.
Where [9] appears, read: PBO IV + VOR oral (10 mg/day), Day 7, N 28.

T1 sequence (F6SFA9 1-390): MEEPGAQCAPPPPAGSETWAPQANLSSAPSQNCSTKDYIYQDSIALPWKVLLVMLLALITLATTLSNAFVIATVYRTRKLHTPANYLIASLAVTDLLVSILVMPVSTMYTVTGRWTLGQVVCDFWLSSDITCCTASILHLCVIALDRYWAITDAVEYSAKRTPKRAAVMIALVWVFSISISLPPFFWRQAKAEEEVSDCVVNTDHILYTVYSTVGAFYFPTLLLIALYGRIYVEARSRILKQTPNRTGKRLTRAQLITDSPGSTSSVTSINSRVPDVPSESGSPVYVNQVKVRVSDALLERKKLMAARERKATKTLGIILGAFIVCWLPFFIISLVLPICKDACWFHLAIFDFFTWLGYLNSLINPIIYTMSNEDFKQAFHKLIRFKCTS

For `Cc1ccc(Sc2ccccc2N2CCNCC2)c(C)c1` [VOR IV + VOR oral], the concentration at 2 h in data set [1] (setting [3]) is 11.1 ± 9.3 ng/mL. For the same compound, the concentration at 8 h in data set [1] (setting [3]) was 11 ± 2.9 ng/mL. Further, the concentration at 24 h in data set [1] (setting [3]) was 8.6 ± 2.6 ng/mL. In addition, the concentration at 14 day in data set [1] (setting [3]) is 10.8 ± 7 ng/mL. Also, the AUC(0-t) in data set [1] (other: intravenous infusion plus oral tablets, day 0, VOR IV+VOR oral treated patients) was 251 ± 46 ng·h/mL. The “Change in 5-item MADRS score, Mean” value in data set [2] (setting [4]) was −5.05; in data set [2] (setting [5]) it was −6.96; in data set [2] (setting [6]) it was −8.30; in data set [2] (VOR IV (17 mg day 0) + VOR oral (10 mg/day), Day 14, N 27), -9.37. The “Change in MADRS total score, Mean” value in data set [2] (setting [4]) is listed as −6.9; in data set [2] (setting [5]), −12.1; in data set [2] (setting [6]), −13.7. Besides, the “Change in 5-item MADRS score, Difference” value was −1.13 in data set [2] (Day 1), −0.96 in data set [2] (Day 3), −1.27 in data set [2] (Day 7) and −0.16 in data set [2] (Day 14). Also, the “Change in MADRS total score, Difference” value in data set [2] (Day 1) is listed as −1.4; in data set [2] (Day 3), −1.7; in data set [2] (Day 7), −0.3. Moreover, the “% responders (CGI-I ≤ 2)” value in data set [2] (VOR IV + VOR oral, Day 1) came to 18.5%; in data set [2] (VOR IV + VOR oral, Day 3) it was 50.0%; in data set [2] (VOR IV + VOR oral, Day 7), 53.8%; in data set [2] (VOR IV + VOR oral, Day 14) it was 73.1%. The “% responders (≥50% reduction on MADRS Scale)” value was 3.7% in data set [2] (VOR IV + VOR oral, Day 1); 29.6% in data set [2] (VOR IV + VOR oral, Day 3); 40.7% in data set [2] (VOR IV + VOR oral, Day 7); 48.1% in data set [2] (VOR IV + VOR oral, Day 14).

Regarding `Cc1ccc(Sc2ccccc2N2CCNCC2)c(C)c1` [PBO IV + VOR oral], the concentration at 2 h in data set [1] (10 mg/day, PBO IV + VOR oral) is 0.56 ± 1.18 ng/mL. The concentration at 8 h in data set [1] (10 mg/day, PBO IV + VOR oral) was 2.8 ± 1.8 ng/mL. Moreover, the concentration at 24 h in data set [1] (10 mg/day, PBO IV + VOR oral) is 2.6 ± 1.3 ng/mL. Moreover, the concentration at 14 day in data set [1] (10 mg/day, PBO IV + VOR oral) is 9.9 ± 5.3 ng/mL. Further, the AUC(0-t) in data set [1] (oral, 10 mg/day, day 0, PBO IV+VOR oral treated patients) is 47 ± 20 ng·h/mL; in data set [1] (oral, 10 mg/day, day 14, PBO IV+VOR oral treated patients) it was 230 ± 85 ng·h/mL. Further, the “Change in 5-item MADRS score, Mean” value is −3.92 in data set [2] (setting [7]); −6.00 in data set [2] (setting [8]); −7.03 in data set [2] (setting [9]); -9.21 in data set [2] (PBO IV + VOR oral (10 mg/day), Day 14, N 28). The “Change in MADRS total score, Mean” value in data set [2] (setting [7]) is on record as −5.5; in data set [2] (setting [8]), −10.3; in data set [2] (setting [9]), −13.4. Also, the “% responders (CGI-I ≤ 2)” value in data set [2] (PBO IV + VOR oral, Day 1) came out at 7.1%; in data set [2] (PBO IV + VOR oral, Day 3), 39.3%; in data set [2] (PBO IV + VOR oral, Day 7), 42.9%; in data set [2] (PBO IV + VOR oral, Day 14), 67.9%. Also, the “% responders (≥50% reduction on MADRS Scale)” value is listed as 0% in data set [2] (PBO IV + VOR oral, Day 1); 14.3% in data set [2] (PBO IV + VOR oral, Day 3); 28.6% in data set [2] (PBO IV + VOR oral, Day 7); 50.0% in data set [2] (PBO IV + VOR oral, Day 14).

Consider `CN(C)CCCC1(c2ccc(F)cc2)OCc2cc(C#N)ccc21` (centres unmarked) [Citalopram], for which the change in vivo at 0.3 mg/kg at 5-HT1B receptor (Amygdala) was 4.6 ± 11.6%; on 5-HT1B receptor (Caudate nucleus), 7.1 ± 7.5%; on 5-HT1B receptor (Dorsal raphe nucleus) it was -21.2 ± 5.7%; on 5-HT1B receptor (Frontal gyrus), 12.4 ± 9.3%; on 5-HT1B receptor (Globus pallidus), -1.6 ± 9.6%; at 5-HT1B receptor (Hippocampus), 5.4 ± 12.5%. In addition, the change in vivo at 0.3 mg/kg on 5-HT1B receptor (Midbrain) was 2.7 ± 5.3%; at 5-HT1B receptor (Occipital gyrup) it was 15.7 ± 11.1%; on 5-HT1B receptor (Putamen) it was 7.3 ± 12%; on 5-HT1B receptor (Thalamus) it was 0.3 ± 5.6%; at 5-HT1B receptor (Ventral striatum), 3.1 ± 10.8%.
